Test results published in PubChem BioAssay AID248 (DTP/NCI, 2004).
Inconclusive results and toxic doses are left out. Square brackets hold non-standard residues; d marks the D form. Peptide text beside a SMILES is read from it. * marks the point of attachment. ξ: configuration not given here. ξH = NC(Cc1c[nH]cn1)C(=O)O; Cbz = O=C(OCc1ccccc1)*

Test system: L1210 leukemia ip in BDF1 mice, survival T/C
Test: NCI In Vivo Anticancer Drug Screen. Data for tumor model L1210 Leukemia (intraperitoneal) in B6D2F1 (BDF1) mice
Details: endpoint: mean survival time, higher = longer survival
How it was run: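 Survival endpoint. Drug-treated group vs vehicle group, expressed as T divided by C. Tumor passaged by transplantation.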

[1] = dose: 50.0 mg/kg/injection, schedule: Q01DX001 (ip), vehicle: water
[2] = dose: 50.0 mg/kg/injection, schedule: Q01DX009 (ip), vehicle: saline
[3] = dose: 100.0 mg/kg/injection, schedule: Q01DX001 (ip), vehicle: saline
[4] = dose: 100.0 mg/kg/injection, schedule: Q01DX001 (ip), vehicle: water
[5] = dose: 200.0 mg/kg/injection, schedule: Q01DX001 (ip), vehicle: water
[6] = dose: 400.0 mg/kg/injection, schedule: Q01DX001 (ip), vehicle: water
[7] = dose: 100.0 mg/kg/injection, schedule: Q01DX009 (ip), vehicle: saline
[8] = dose: 200.0 mg/kg/injection, schedule: Q01DX009 (ip), vehicle: saline
[9] = dose: 100.0 mg/kg/injection, schedule: Q01DX009 (ip), vehicle: Klucel (hydroxypropylcellulose) (HPC)
[10] = dose: 200.0 mg/kg/injection, schedule: Q01DX009 (ip), vehicle: Klucel (hydroxypropylcellulose) (HPC)
[11] = dose: 400.0 mg/kg/injection, schedule: Q01DX009 (ip), vehicle: Klucel (hydroxypropylcellulose) (HPC)

With `COc1cc(NS(C)(=O)=O)ccc1Nc1c2cccc(C)c2nc2c(C)cccc12` the T/C (dose: 6.25 mg/kg/injection, schedule: Q01DX009 (ip), vehicle: saline) was 117 % of control, the T/C (dose: 6.25 mg/kg/injection, schedule: Q01DX009 (sc), vehicle: Klucel (hydroxypropylcellulose) (HPC)) was 103 % of control and the T/C (dose: 12.5 mg/kg/injection, schedule: Q01DX009 (ip), vehicle: water) was 170 % of control. For the same compound, the T/C (dose: 12.5 mg/kg/injection, schedule: Q01DX009 (sc), vehicle: Klucel (hydroxypropylcellulose) (HPC)) was 104 % of control, the T/C (dose: 25.0 mg/kg/injection, schedule: Q01DX009 (ip), vehicle: saline) was 175 % of control and the T/C (dose: 25.0 mg/kg/injection, schedule: Q01DX009 (ip), vehicle: water) was 201 % of control. For the same compound, the T/C (dose: 25.0 mg/kg/injection, schedule: Q01DX009 (sc), vehicle: Klucel (hydroxypropylcellulose) (HPC)) was 112 % of control, the T/C (dose: 50.0 mg/kg/injection, schedule: Q01DX001 (ip), vehicle: saline) was 115 % of control and the T/C [1] was 167 % of control. The T/C [2] was 166 % of control, the T/C (dose: 50.0 mg/kg/injection, schedule: Q01DX009 (sc), vehicle: Klucel (hydroxypropylcellulose) (HPC)) was 111 % of control and the T/C [3] was 115 % of control. The T/C [4] was 213 % of control, the T/C (dose: 100.0 mg/kg/injection, schedule: Q01DX009 (ip), vehicle: water) was 107 % of control and the T/C [5] was 224 % of control. The T/C [6] was 102 % of control.
In the case of `CCNC(C)(C)C(=O)c1ccco1`, the T/C [2] is reported as 94 % of control, the T/C [7] is reported as 100 % of control and the T/C [8] is reported as 94 % of control.
In the case of `NC1=Nc2ccccc2CS1`, the T/C (dose: 18.8 mg/kg/injection, schedule: Q04DX003 (ip), vehicle: saline) is reported as 95 % of control and the T/C (dose: 37.5 mg/kg/injection, schedule: Q04DX003 (ip), vehicle: saline) is reported as 101 % of control.
`O=C(CNC(=O)OCc1ccccc1)NC(Cc1cnc[nH]1)C(=O)O` (stereo not drawn) (Cbz-Gly-[ξH]-OH) was tested, and the T/C [3] was 96 % of control, the T/C (dose: 200.0 mg/kg/injection, schedule: Q01DX001 (ip), vehicle: saline) was 104 % of control and the T/C (dose: 400.0 mg/kg/injection, schedule: Q01DX001 (ip), vehicle: saline) was 107 % of control.
In the case of `CNC(=O)Nc1ccc(Cl)cc1`, the T/C (dose: 100.0 mg/kg/injection, schedule: Q01DX001 (ip), vehicle: Klucel (hydroxypropylcellulose) (HPC)) is reported as 107 % of control, the T/C (dose: 200.0 mg/kg/injection, schedule: Q01DX001 (ip), vehicle: Klucel (hydroxypropylcellulose) (HPC)) is reported as 105 % of control and the T/C (dose: 400.0 mg/kg/injection, schedule: Q01DX001 (ip), vehicle: Klucel (hydroxypropylcellulose) (HPC)) is reported as 107 % of control.
In the case of `CSc1ccc(NC(=O)C(Br)C(Br)c2ccccc2)cc1` (centres undefined), the T/C [9] is reported as 103 % of control, the T/C [10] is reported as 105 % of control and the T/C [11] is reported as 102 % of control.
`OC(c1ccccc1)C1C2C=CC(C2)C1C(O)c1ccccc1` (centres undefined) was tested, and the T/C [9] was 101 % of control, the T/C [10] was 86 % of control and the T/C (dose: 300.0 mg/kg/injection, schedule: Q01DX009 (ip), vehicle: Klucel (hydroxypropylcellulose) (HPC)) was 95 % of control.
In the case of `CC(=O)OC1CCC2(C)C(CCC3C2CCC2(C)C(C(C)C(=O)O)CCC32)C1` (centres undefined), the T/C (dose: 100.0 mg/kg/injection, schedule: Q04DX002 (ip), vehicle: Klucel (hydroxypropylcellulose) (HPC)) is reported as 100 % of control, the T/C (dose: 100.0 mg/kg/injection, schedule: Q04DX003 (ip), vehicle: saline with Tween-80) is reported as 104 % of control and the T/C (dose: 200.0 mg/kg/injection, schedule: Q04DX002 (ip), vehicle: Klucel (hydroxypropylcellulose) (HPC)) is reported as 97 % of control. For the same compound, the T/C (dose: 200.0 mg/kg/injection, schedule: Q04DX003 (ip), vehicle: saline with Tween-80) was 98 % of control, the T/C (dose: 400.0 mg/kg/injection, schedule: Q04DX002 (ip), vehicle: Klucel (hydroxypropylcellulose) (HPC)) was 94 % of control and the T/C (dose: 400.0 mg/kg/injection, schedule: Q04DX003 (ip), vehicle: saline with Tween-80) was 93 % of control.
For `CC1(C)C/C(=C\c2ccc(Br)cc2)C(=O)c2ccccc21`, the T/C [9] was 98 % of control, the T/C (dose: 100.0 mg/kg/injection, schedule: Q04DX003 (ip), vehicle: Klucel (hydroxypropylcellulose) (HPC)) was 106 % of control and the T/C [10] was 95 % of control. The T/C (dose: 200.0 mg/kg/injection, schedule: Q04DX003 (ip), vehicle: Klucel (hydroxypropylcellulose) (HPC)) was 106 % of control, the T/C [11] was 101 % of control and the T/C (dose: 400.0 mg/kg/injection, schedule: Q04DX003 (ip), vehicle: Klucel (hydroxypropylcellulose) (HPC)) was 104 % of control.
With `O=C(c1ccccc1Br)C(Br)C(Br)c1ccccc1` (centres undefined) the T/C (dose: 100.0 mg/kg/injection, schedule: Q01DX009 (ip), vehicle: saline with Tween-80) was 98 % of control, the T/C (dose: 200.0 mg/kg/injection, schedule: Q01DX009 (ip), vehicle: saline with Tween-80) was 93 % of control and the T/C (dose: 400.0 mg/kg/injection, schedule: Q01DX009 (ip), vehicle: saline with Tween-80) was 91 % of control.
With `COc1ccc(C(=O)/C=C/c2ccccc2O)cc1` the T/C (dose: 75.0 mg/kg/injection, schedule: Q04DX003 (ip), vehicle: saline) was 104 % of control, the T/C (dose: 150.0 mg/kg/injection, schedule: Q04DX003 (ip), vehicle: saline) was 101 % of control and the T/C (dose: 300.0 mg/kg/injection, schedule: Q04DX003 (ip), vehicle: saline) was 96 % of control.
For `O=CNO`, the T/C [1] was 100 % of control, the T/C [4] was 110 % of control and the T/C [5] was 96 % of control. The T/C [6] was 107 % of control.
In the case of `CCC[CH2][Sn]([CH2]CCC)([CH2]CCC)[CH2]C(C)(C)c1ccccc1`, the T/C (dose: 75.0 mg/kg/injection, schedule: Q01DX001 (ip), vehicle: other) is reported as 91 % of control.
For `Cn1c(=O)n(C)c2nccnc21`, the T/C (dose: 12.5 mg/kg/injection, schedule: Q04DX002 (ip), vehicle: saline) was 108 % of control, the T/C (dose: 25.0 mg/kg/injection, schedule: Q04DX002 (ip), vehicle: saline) was 105 % of control and the T/C (dose: 50.0 mg/kg/injection, schedule: Q04DX002 (ip), vehicle: saline) was 94 % of control.
In the case of `CC(C)c1ccc(N2P(=O)(N(C)C)N(c3ccc(C(C)C)cc3)P2(=O)N(C)C)cc1` (centres undefined), the T/C [9] is reported as 95 % of control, the T/C [10] is reported as 92 % of control and the T/C [11] is reported as 98 % of control.
For `ClC1=C(Cl)[C@@]2(Cl)[C@H]3[C@H]4C[C@H]([C@@H]5O[C@H]45)[C@H]3[C@@]1(Cl)C2(Cl)Cl`, the T/C (dose: 1.0 mg/kg/injection, schedule: Q01DX009 (ip), vehicle: acetone) was 102 % of control, the T/C (dose: 2.0 mg/kg/injection, schedule: Q01DX009 (ip), vehicle: acetone) was 93 % of control and the T/C (dose: 4.0 mg/kg/injection, schedule: Q01DX009 (ip), vehicle: acetone) was 96 % of control. For the same compound, the T/C (dose: 8.0 mg/kg/injection, schedule: Q01DX009 (ip), vehicle: acetone) was 86 % of control and the T/C (dose: 25.0 mg/kg/injection, schedule: Q01DX001 (ip), vehicle: acetone) was 102 % of control.
`CN=C(c1ccc(NC(=O)c2ccc(C(=O)Nc3ccc(C(=NC)N4CCOCC4)cc3)cc2)cc1)N1CCOCC1` was tested, and the T/C (dose: 0.9 mg/kg/injection, schedule: Q01DX Z (ip), vehicle: carboxymethylcellulose (CMC)) was 86 % of control, the T/C (dose: 1.87 mg/kg/injection, schedule: Q01DX Z (ip), vehicle: carboxymethylcellulose (CMC)) was 91 % of control and the T/C (dose: 3.75 mg/kg/injection, schedule: Q01DX Z (ip), vehicle: carboxymethylcellulose (CMC)) was 93 % of control. The T/C (dose: 7.5 mg/kg/injection, schedule: Q01DX Z (ip), vehicle: carboxymethylcellulose (CMC)) was 91 % of control and the T/C (dose: 15.0 mg/kg/injection, schedule: Q01DX Z (ip), vehicle: carboxymethylcellulose (CMC)) was 101 % of control.
`NC(N)=NCCCCCC(=O)O` was tested, and the T/C [7] was 95 % of control, the T/C (dose: 100.0 mg/kg/injection, schedule: Q04DX003 (ip), vehicle: saline) was 103 % of control and the T/C [8] was 88 % of control. For the same compound, the T/C (dose: 200.0 mg/kg/injection, schedule: Q04DX003 (ip), vehicle: saline) was 100 % of control and the T/C (dose: 400.0 mg/kg/injection, schedule: Q04DX003 (ip), vehicle: saline) was 101 % of control.
In the case of `COC(=O)C1C(=O)C(C(=O)OC)C(C)N(C)C1C` (centres undefined), the T/C (dose: 9.38 mg/kg/injection, schedule: Q01DX001 (ip), vehicle: other) is reported as 98 % of control, the T/C (dose: 18.75 mg/kg/injection, schedule: Q01DX001 (ip), vehicle: other) is reported as 104 % of control and the T/C (dose: 37.5 mg/kg/injection, schedule: Q01DX001 (ip), vehicle: other) is reported as 95 % of control.
With `NC(=O)N/N=C(\CCl)c1ccccc1` the T/C (dose: 12.0 mg/kg/injection, schedule: Q04DX003 (ip), vehicle: saline) was 93 % of control.
For `CC1(C)C2CCC1(C)C(OCCC#N)C2` (centres undefined), the T/C (dose: 100.0 mg/kg/injection, schedule: Q04DX002 (ip), vehicle: saline) was 93 % of control, the T/C (dose: 200.0 mg/kg/injection, schedule: Q04DX002 (ip), vehicle: saline) was 107 % of control and the T/C (dose: 400.0 mg/kg/injection, schedule: Q04DX002 (ip), vehicle: saline) was 104 % of control.
